# Reference: patent US20210161189A1, “MONOESTER SUGAR DERIVATIVES AS FLAVOR MODIFIERS” (Firmenich SA, priority 2018, published 2021)
# Columns and labels:
# Assay type in all cases: in vivo, human
# sensory panel [1] = assay: Sensory panel, lemon flavored alcoholic beverage; design: scale not given here; conditions: panel score
# Procedure: […] In parallel, a control composition, comprising lemon flavored alcoholic beverage was also generated. A sensory panel consisting of between 6 to 8 persons compared the overall flavor, sweetness, acidity, bitterness, astringency, off-notes, and long-lastingness of the sweetness of the test composition and the control composition. The results were analyzed using the Duncan comparison test.
# sensory panel [2] = assay: Sensory panel, raspberry flavored water; design: scale not given here; conditions: panel score
# Procedure: […] In parallel, a control composition, comprising raspberry flavored water was also generated. A sensory panel consisting of between 6 to 8 persons compared the overall flavor, sweetness, acidity, bitterness, astringency, off-notes, and long-lastingness of the sweetness of the test composition and the control composition. The results were analyzed using the Duncan comparison test.
# sensory panel [3] = assay: Sensory panel, dairy test composition (milk sweetened with 3% w/v sucrose); conditions: 100 ppm in milk sweetened with 3% sucrose; panel score
# Procedure: Glucose-6-O-octanoate, manufactured according to the methods described in Example 1 above was added to a dairy test composition (milk sweetened with 3% w/v sucrose), to result in a final concentration of 100 ppm in the test composition. In parallel, a control composition, comprising milk sweetened with 3% w/v sucrose was also generated. A sensory panel consisting of between 6 to 8 persons compared the overall flavor, sweetness, acidity, bitterness, astringency, off-notes, and long-lastingness of the sweetness of the dairy test composition containing 100 ppm glucose-6-O-octanoate and the control composition. The results were analyzed using the Duncan comparison test.
# sensory panel [4] = assay: Sensory panel, coffee composition (Emmi Noir coffee, containing milk); conditions: 200 ppm in coffee containing milk; panel score
# Procedure: Next, glucose-6-O-octanoate was added to a coffee composition (Emmi Noir coffee, containing milk), to result in a final concentration of 200 ppm in the test composition. In parallel, a control composition, comprising Emmi Noir coffee, containing milk was also generated. A sensory panel consisting of between 6 to 8 persons compared the overall flavor, sweetness, acidity, bitterness, astringency, off-notes, and long-lastingness of the sweetness of the test composition and the control composition. The results were analyzed using the Duncan comparison test.
# sensory panel [5] = assay: Sensory panel, orange flavored test composition; conditions: 200 ppm in orange flavored test composition, panel score
# Procedure: Next, glucose-6-O-octanoate was added to an orange flavored test composition, to result in a final concentration of 200 ppm in the test composition. In parallel, a control composition, comprising orange flavor was also generated. A sensory panel consisting of between 6 to 8 persons compared the overall flavor, sweetness, acidity, bitterness, astringency, off-notes, and long-lastingness of the sweetness of the test composition and the control composition. The results were analyzed using the Duncan comparison test.
# sensory panel [6] = assay: Sensory panel, strawberry flavored bottled water (BWAT) containing 7% w/v sucrose; conditions: 100 ppm in strawberry BWAT 7% sucrose; panel score
# Procedure: Next, glucose-6-O-octanoate was added to a fruit flavored bottled water test composition (strawberry flavored water, containing 7% w/v sucrose), to result in a final concentration of 100 ppm in the test composition.
# sensory panel [7] = assay: Sensory panel, pomegranate juice; conditions: 100 ppm in pomegranate juice; panel score
# Procedure: Next, glucose-6-O-octanoate was added to a pomegranate juice composition, to result in a final concentration of 100 ppm in the test composition. In parallel, a control composition, comprising pomegranate juice was also generated. A sensory panel consisting of between 6 to 8 persons compared the overall flavor, sweetness, acidity, bitterness, astringency, off-notes, and long-lastingness of the sweetness of the test composition and the control composition. The results were analyzed using the Duncan comparison test.
# sensory panel [8] = assay: Taste modifier properties in model systems (sensory panel of 15 persons, with/without noseclip); conditions: 100 ppm; for Sour taste modulation effect: without nose clip
# Procedure: The sensory properties of various compositions comprising a monoester derivative of glucose were tested in various model systems, outlined in Table 14 below. [table] FIGS. 12 to 18 report the sweetness modifier properties of each of the following compounds (tested at 100 ppm in the various mode systems described above): glucose-6-O-octanoate, glucose-6-O-acetate, glucose-6-O-hexanoate, glucose-6-O-decanoate, glucose-6-O-hexadecanoate, glucose-6-O-oleate and glucose-6-O-oleyl derivative. The sensory properties were evaluated by a sensory panel consisting of15 persons, where the properties were evaluated with the subjects wearing a noseclip (With NC), and without a noseclip (Without NC). The subjects evaluate the perceived intensities of different sensory attributes on a linear scale (“0” note intense to “10” very intense) for the corresponding model mixtures without and with the compound at 100ppm. The differences of perceived intensities between the model mixtures with and without the compound are represented for each attribute. A statistical data treatment (unilateral paired student test) is achieved on each attribute to conclude on a significant or not significant taste modulation effect of the compound.
# [9] = 100 ppm in lemon flavored alcoholic beverage
# [10] = 200 ppm in lemon flavored alcoholic beverage
smiles,measurement,setting,value
CCCCCCCC(=O)OC[C@@H](O)[C@@H](O)[C@H](O)[C@@H](O)C=O [glucose-6-O-octanoate],Acidity,sensory panel [1]; [9],2
same,Astringency,sensory panel [1]; [9],1
same,Off-notes,sensory panel [1]; [9],0.25
same,Overall Flavor,sensory panel [1]; [9],3.5
same,Sweetness,sensory panel [1]; [9],3
same,Acidity,sensory panel [1]; [10],2
same,Astringency,sensory panel [1]; [10],2
same,Bitterness,sensory panel [1]; [10],1.1
same,Long-Lasting,sensory panel [1]; [10],1.6
same,Off-notes,sensory panel [1]; [10],0.4
same,Overall Flavor,sensory panel [1]; [10],2.3
same,Astringency,sensory panel [2]; 100 ppm in raspberry water,0.58
same,Bitterness,sensory panel [2]; 100 ppm in raspberry water,0.5
same,Long-Lasting,sensory panel [2]; 100 ppm in raspberry water,0.67
same,Overall Flavor,sensory panel [2]; 100 ppm in raspberry water,3.33
same,Sweetness,sensory panel [2]; 100 ppm in raspberry water,3.42
same,Acidity,sensory panel [2]; 200 ppm in raspberry water,2.62
same,Long-Lasting,sensory panel [2]; 200 ppm in raspberry water,1.81
same,Overall Flavor,sensory panel [2]; 200 ppm in raspberry water,3.06
same,Sweetness,sensory panel [2]; 200 ppm in raspberry water,2.69
same,Acidity,sensory panel [3],0
same,Astringency,sensory panel [3],0.6
same,Bitterness,sensory panel [3],0.8
same,Long-Lasting,sensory panel [3],1.4
same,Overall Flavor,sensory panel [3],1.8
same,Acidity,sensory panel [4],0.17
same,Bitterness,sensory panel [4],1.92
same,Long-lasting (sweet),sensory panel [4],1.83
same,Off-notes,sensory panel [4],0.33
same,Overall Flavor,sensory panel [4],3.17
same,Acidity,sensory panel [5],2.07
same,Astringency,sensory panel [5],decreasing
same,Bitterness,sensory panel [5],decreasing the perceived bitterness
same,Long-Lasting,sensory panel [5],0.29
same,Off-notes,sensory panel [5],0.14
same,Overall Flavor,sensory panel [5],3
same,Sweetness,sensory panel [5],2.79
same,Astringency,sensory panel [5]; listed as 71007,1 B
same,Bitterness,sensory panel [5]; listed as 71007,1.07 B
same,Astringency,sensory panel [6],0.5
same,Long-Lasting,sensory panel [6],0.92
same,Off-notes,sensory panel [6],0.33
same,Overall Flavor,sensory panel [6],3
same,Sweetness,sensory panel [6],4.08
same,Long-Lasting,sensory panel [7],1.75
same,Off-notes,sensory panel [7],0.62
same,Overall Flavor,sensory panel [7],3.38
same,Sweet taste modulation effect,"sensory panel [8]; SG95 model mixture, without and with nose clip",significant sweet enhancing effects
same,Round/thick/mouth coating modulation effect,"sensory panel [8]; beverage grapefruit model, with nose clip, significance 95%",significant round/thick/mouth coating enhancing effect
same,Sour taste modulation effect,"sensory panel [8]; beverage grapefruit model, significance 95%",significant sour masking effect
same,Sweet taste modulation effect,"sensory panel [8]; semi-skimmed milk+sucrose model mixture, without and with nose clip",significant sweet enhancing effects
same,Sweet taste modulation effect,"sensory panel [8]; stevia-sour model, with nose clip, significance 95%",significant sweet masking effect
same,Sweet taste modulation effect,sensory panel [8]; sucrose model mixture,significant sweet enhancing effects
same,Sour taste modulation effect,"sensory panel [8]; sweet-sour model mixture, significance 95%",significant sour masking effect
